Assay results: patent US20190022091A1, “METHOD OF TREATMENT FOR MENTAL DISORDERS” (SUMITOMO DAINIPPON PHARMA CO., LTD., priority 2010, published 2019)
Counter-ions that a name gives are not always drawn.

Key:
[1] = system: common marmosets; assay: ORD test (object retrieval with detour test) in marmosets; type: in vivo, common marmoset; conditions: for variation of the correct % of the ORD test (difficult task): single oral administration, test 2 hours after administration vs before, FIG. 2-6
Description: ORD test (object retrieval with detour test) is already reported as a method for evaluating executive function (attention function/impulsiveness) in primates.
Male and female common marmosets having body weights of 250-450 g were used. Haloperidol, clozapine, olanzapine, risperidone, and lurasidone hydrochloride were separately suspended in 0.5% methylcellulose (MC), and then each suspension was orally administered in a dose of 5 mL/kg to the marmosets. On the other hand, L-745,870 which is a D4 antagonist, and Ro 10-5824 which is a D4 agonist were separately dissolved in saline, and then each solution was intramuscularly administered to the femoris area in a dose of 0.5 mL/kg.
According to the method described in the literature (Psychopharmacology (2006) 196: 643-648) which was partially modified, the ORD test was carried out as follows (see FIG. 1).
In each of the boxes, 0.3-0.5 g of Baumkuchen as a food reward is placed at the point of each triangle in FIG. 1. The marmoset can reach out from the cage (shown as dotted line region) to obtain the reward placed in the acrylic box. FIG. 1 is a view from the directly above. Amongst the situations between each direction of the box and each position of the reward, 5 patterns (line of sight, left outside, left inside, right outside, and right inside) are defined as “easy task”, and the other 2 patterns (left deep, and right deep) are defined as “difficult task”. It is recorded as “correct” when the test animal can obtain the reward in one trial, while it is recorded as “incorrect” when the animal can obtain the reward in the second trial or later.
The ORD test is carried out in the order described in the following table without any interval between each trial, which is referred to as “one series”. The marmoset is made to be trained with the one series once a day.
The marmosets were trained with the ORD test at least 10 times, and then the trained marmosets were used in the following main test.
The main ORD test was carried out as follows.
(1) The ORD test is carried out before administering each test drug (former value). Hereinafter, the ORD test is done in one series containing the 17 trials corresponding to the above-mentioned training.
(2) Two hours after administering each test drug, the same ORD test is carried out again (latter value). In case of the combined administration, the first drug (lurasidone hydrochloride) is administered; one hour later, the second drug (the D4 antagonist or D agonist) is administered; and then the ORD test is done one hour after the second drug is administered.
(3) The variation of correct % in the Difficult task is calculated according to the following formula in order to evaluate the effect of each drug. For example, in case that the “correct count” in the before-administration test (former value) is 3 and the “correct count” in the after-administration test (latter value) is 5, the “correct %” is calculated to rise in 25% (=(5-3)/8×100%) based on the fact that the trial count of the difficult task in each series is 8.
The variation of the correct %={the difference between the both correct counts in the difficult task (latter value−former value)}/8×100
(4) The amount of Baumkuchen is 0.5 g×17=8.5 g in one series. The marmoset can be tested at most 2 sets per day, i.e. it has been confirmed that the marmoset can take at most 17 g of Baumkuchen per day, but, all the test marmosets cannot be satisfied with 17 g of Baumkuchen.
(5) In case that a marmoset treated with the drug is used again, the marmoset is given in 2 week-drug-holidays, and before the test it is confirmed that the previous medication will not affect the test.
(6) 5 to 6 marmosets were used per one test group. When a marmoset (s) suffered from vomiting or cataleptic akinesia induced by the drug and then the ORD test with the marmoset (s) could not be done, the data of the marmoset(s) were excluded. […]

[2] = system: SHRSP rats; assay: Y-maze test with juvenile SHRSP rats; type: in vivo, rat; conditions: for Total Arm Entries mean ± SE / % of Alternation Behavior mean ± SE: SHRSP; for Total Arm Entries mean ± SE: 8 minute session; for % of Alternation Behavior mean ± SE: 30 minutes before evaluation
Description: According to the Y-maze test with juvenile stroke-prone spontaneously hypertensive rats (SHRSP), it is possible to evaluate the effect of lurasidone hydrochloride on attention function with spontaneous Alternation Behavior as an index of attention or concentration (Behav Brain Funct. 2005 Jul. 15; 1:9). Moreover, the effects of lurasidone hydrochloride on hyperactivity, which is one of core symptoms in ADHD, can be confirmed by the total number of the Arm Entries in a Y-maze test.
For the estimation of inattentive behavior, male juvenile SHRSP rats as an ADHD model and WKY rats as a reference (4 weeks old, n=8-10/group) are used. These animals are commercially available from Charles River Laboratories Japan, inc. or Hoshino Laboratory animals, inc. Lurasidone hydrochloride (e.g. 0.01, 0.03, 0.1, 0.3, 1, 3 and 10 mg/kg; produced by Dainippon Sumitomo Pharma Co., Ltd.) is dissolved in 0.5% methylcellulose and 0.2% Tween 80, and is administrated intraperitoneally in a volume of 1 ml/kg, 30 minutes before the evaluation.
The method of Y-maze test was already reported elsewhere (Behav Pharmacol. 2002 February; 13(1):1-13). The “Arm Entry” means the entry of all four paws into one arm. The “Alternation Behavior”, which is actual alternations, means the consecutive Arm Entries into three different arms. The test is carried out for 8 minutes in one session and the total number that a rat performs the Arm Entry is counted. The “Maximum Alternations” means the total number of the Arm Entries minus two. An index of attention is calculated as a percentage of the Alternation Behavior, as described below.
A percentage of Alternation Behavior=(the total number of the Alternation Behavior)/(the Maximum Alternations)×100

[3] = molecular target: 5-HT2A (Homo sapiens, UniProt P28223); conditions: cited from earlier work
5-HT2A, sequence (P28223 whole entry, species assumed): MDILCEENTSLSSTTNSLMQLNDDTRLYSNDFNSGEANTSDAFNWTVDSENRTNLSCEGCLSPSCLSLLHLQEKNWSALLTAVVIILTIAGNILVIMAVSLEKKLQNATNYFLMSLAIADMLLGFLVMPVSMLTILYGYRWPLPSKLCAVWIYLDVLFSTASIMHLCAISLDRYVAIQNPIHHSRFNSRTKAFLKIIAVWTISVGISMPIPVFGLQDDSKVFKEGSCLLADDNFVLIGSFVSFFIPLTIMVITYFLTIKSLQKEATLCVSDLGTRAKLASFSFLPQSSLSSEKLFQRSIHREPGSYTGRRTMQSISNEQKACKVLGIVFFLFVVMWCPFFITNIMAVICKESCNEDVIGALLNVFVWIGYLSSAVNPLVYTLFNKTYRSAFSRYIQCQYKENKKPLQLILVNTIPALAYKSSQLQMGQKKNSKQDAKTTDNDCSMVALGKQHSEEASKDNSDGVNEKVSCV

[4] = molecular target: 5-HT7 (Homo sapiens, UniProt P34969); conditions: cited from earlier work
5-HT7, sequence (P34969 whole entry, species assumed): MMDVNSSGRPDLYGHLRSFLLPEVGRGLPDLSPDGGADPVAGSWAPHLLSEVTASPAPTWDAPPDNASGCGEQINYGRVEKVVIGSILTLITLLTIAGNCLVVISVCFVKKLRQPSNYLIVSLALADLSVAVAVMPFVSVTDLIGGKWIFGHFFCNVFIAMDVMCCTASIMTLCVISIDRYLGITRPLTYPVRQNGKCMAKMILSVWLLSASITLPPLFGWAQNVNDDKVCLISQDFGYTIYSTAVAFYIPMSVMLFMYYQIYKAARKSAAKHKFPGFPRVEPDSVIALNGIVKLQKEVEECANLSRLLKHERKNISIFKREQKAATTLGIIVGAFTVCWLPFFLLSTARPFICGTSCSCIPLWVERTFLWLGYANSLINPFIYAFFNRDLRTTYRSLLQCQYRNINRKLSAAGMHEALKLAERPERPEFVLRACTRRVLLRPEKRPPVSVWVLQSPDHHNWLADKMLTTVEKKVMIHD

[5] = molecular target: T1, serotonin 5-HT1A (Homo sapiens, UniProt P08908); conditions: cited from earlier work
T1 sequence (P08908 1-422): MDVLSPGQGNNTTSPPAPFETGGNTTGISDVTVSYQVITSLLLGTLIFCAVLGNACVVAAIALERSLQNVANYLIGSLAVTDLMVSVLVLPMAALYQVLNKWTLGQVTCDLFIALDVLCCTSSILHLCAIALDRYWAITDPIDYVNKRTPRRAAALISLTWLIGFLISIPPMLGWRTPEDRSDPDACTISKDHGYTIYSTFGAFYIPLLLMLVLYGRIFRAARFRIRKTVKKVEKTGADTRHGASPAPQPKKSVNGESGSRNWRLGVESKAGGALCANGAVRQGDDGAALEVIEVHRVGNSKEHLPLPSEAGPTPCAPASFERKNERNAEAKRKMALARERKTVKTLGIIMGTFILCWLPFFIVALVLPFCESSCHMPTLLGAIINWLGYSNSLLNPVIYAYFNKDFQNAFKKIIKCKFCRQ

[6] = molecular target: T2, noradrenaline α2c receptors (Homo sapiens, UniProt P18825); conditions: cited from earlier work
T2 sequence (P18825 1-462): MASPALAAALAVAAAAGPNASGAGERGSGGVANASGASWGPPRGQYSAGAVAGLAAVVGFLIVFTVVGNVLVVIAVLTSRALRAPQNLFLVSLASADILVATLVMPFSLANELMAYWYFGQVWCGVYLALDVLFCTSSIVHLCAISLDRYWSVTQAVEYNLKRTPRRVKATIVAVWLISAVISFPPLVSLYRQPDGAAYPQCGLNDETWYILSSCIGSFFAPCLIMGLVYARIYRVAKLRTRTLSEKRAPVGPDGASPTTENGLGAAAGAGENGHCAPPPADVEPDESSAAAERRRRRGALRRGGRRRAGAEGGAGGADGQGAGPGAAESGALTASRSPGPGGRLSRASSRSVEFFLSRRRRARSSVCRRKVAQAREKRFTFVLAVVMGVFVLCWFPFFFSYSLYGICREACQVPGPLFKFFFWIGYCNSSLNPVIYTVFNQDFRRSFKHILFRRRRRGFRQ

[7] = molecular target: T3, muscarinic M1 receptors (Homo sapiens, UniProt P11229); conditions: cited from earlier work
T3 sequence (P11229 1-460): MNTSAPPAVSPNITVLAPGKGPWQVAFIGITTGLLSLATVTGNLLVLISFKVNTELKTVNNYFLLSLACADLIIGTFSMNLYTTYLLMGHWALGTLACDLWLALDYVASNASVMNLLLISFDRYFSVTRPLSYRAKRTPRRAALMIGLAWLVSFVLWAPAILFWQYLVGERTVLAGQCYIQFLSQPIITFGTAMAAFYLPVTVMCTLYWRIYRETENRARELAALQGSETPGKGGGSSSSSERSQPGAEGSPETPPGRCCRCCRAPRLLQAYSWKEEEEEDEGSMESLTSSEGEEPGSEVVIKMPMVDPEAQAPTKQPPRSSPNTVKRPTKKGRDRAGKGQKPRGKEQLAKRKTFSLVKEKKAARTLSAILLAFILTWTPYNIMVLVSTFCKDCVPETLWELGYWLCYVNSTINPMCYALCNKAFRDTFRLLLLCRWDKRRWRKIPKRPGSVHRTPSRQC

[8] = molecular target: histamine H1 (Homo sapiens, UniProt P35367); conditions: cited from earlier work
histamine H1, sequence (P35367 whole entry): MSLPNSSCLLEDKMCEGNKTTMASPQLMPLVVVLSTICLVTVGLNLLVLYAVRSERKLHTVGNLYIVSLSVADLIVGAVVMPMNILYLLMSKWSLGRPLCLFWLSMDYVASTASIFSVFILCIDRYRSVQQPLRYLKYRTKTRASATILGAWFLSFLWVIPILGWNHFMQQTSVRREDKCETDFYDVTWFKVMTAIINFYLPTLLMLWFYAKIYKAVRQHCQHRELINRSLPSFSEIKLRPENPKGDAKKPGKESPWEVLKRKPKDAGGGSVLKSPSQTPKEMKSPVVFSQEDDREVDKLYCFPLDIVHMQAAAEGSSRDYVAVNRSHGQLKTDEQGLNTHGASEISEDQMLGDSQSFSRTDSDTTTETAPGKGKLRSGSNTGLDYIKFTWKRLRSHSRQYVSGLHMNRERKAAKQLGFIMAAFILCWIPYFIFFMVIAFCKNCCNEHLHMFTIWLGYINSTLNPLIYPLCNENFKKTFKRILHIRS

[9] = molecular target: dopamine D2 (Homo sapiens, UniProt P14416); conditions: cited from earlier work
dopamine D2, sequence (P14416 whole entry): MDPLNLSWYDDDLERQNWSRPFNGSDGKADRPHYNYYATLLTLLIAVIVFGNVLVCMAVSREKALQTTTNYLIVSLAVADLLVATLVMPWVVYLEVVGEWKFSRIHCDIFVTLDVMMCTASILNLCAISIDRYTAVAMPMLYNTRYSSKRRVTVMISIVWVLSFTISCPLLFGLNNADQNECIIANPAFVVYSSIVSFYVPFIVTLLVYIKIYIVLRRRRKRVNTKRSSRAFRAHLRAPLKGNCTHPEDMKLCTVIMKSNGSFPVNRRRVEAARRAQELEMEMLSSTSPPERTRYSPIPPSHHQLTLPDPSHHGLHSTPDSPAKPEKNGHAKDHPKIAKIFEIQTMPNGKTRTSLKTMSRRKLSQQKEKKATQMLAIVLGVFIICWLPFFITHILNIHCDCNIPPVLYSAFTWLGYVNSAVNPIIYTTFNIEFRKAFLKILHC

Question: For `Cc1ncc(CN2CC=C(c3ccccc3)CC2)c(N)n1` [Ro 10-5824, 2-Methyl-5-(4-phenyl-1,2,3,6-tetrahydropyridin-1-yl-methyl)pyrimidine-4-amine], which “correct % of the ORD test” value ([1]; Ro 10-5824 alone, 0.3 mg/kg i.m.) is on record?
Answer: had no effects on the correct %

Question: What about the ORD score ([1]; single administration i.m., dose series, FIG. 8) of the same compound?
Answer: increased the ORD score in a dose dependent manner

Question: Which results are given for `Clc1ccc(N2CCN(Cc3c[nH]c4ncccc34)CC2)cc1` [L-745,870]?
Answer: correct % of the ORD test ([1]; L-745,870 3 mg/kg i.m. combined with lurasidone hydrochloride 10 mg/kg p.o., FIG. 7): decreased the correct % which was increased by the administration of lurasidone hydrochloride; ORD score ([1]; single intramuscular administration, 10 mg/kg, FIG. 7): had no effects on the ORD score

Question: With `Cc1nc2n(c(=O)c1CCN1CCC(c3noc4cc(F)ccc34)CC1)CCCC2` [risperidone] as the compound, how does the “variation of the correct % of the ORD test (difficult task)” value [1] read?
Answer: decreased the correct % of the ORD test in a dose-dependent manner

Question: For `O=C1[C@@H]2[C@H]3CC[C@H](C3)[C@@H]2C(=O)N1C[C@@H]1CCCC[C@H]1CN1CCN(c2nsc3ccccc23)CC1` [lurasidone hydrochloride], which ORD score ([1]; lurasidone hydrochloride 3 mg/kg p.o. combined with Ro 10-5824 0.3 mg/kg i.m., FIG. 8) is on record?
Answer: the ORD score was significantly increased

Question: And the “correct % of the ORD test” value ([1]; lurasidone hydrochloride alone, 3 mg/kg p.o.)?
Answer: had no effects on the correct %

Question: What about the “variation of the correct % of the ORD test (difficult task)” value [1] of the same compound?
Answer: increased the correct % of the ORD test in a dose-dependent manner

Question: And the “Total Arm Entries mean ± SE” value ([2]; 0.1 mg/kg i.p.)?
Answer: 24 ± 1

Question: What about the “% of Alternation Behavior mean ± SE” value ([2]; 0.1 mg/kg i.p.) of the same compound?
Answer: 70 ± 5%

Question: And the “Total Arm Entries mean ± SE” value ([2]; 0.3 mg/kg i.p., P < 0.05)?
Answer: 22 ± 2

Question: And the “% of Alternation Behavior mean ± SE” value ([2]; 0.3 mg/kg i.p., P < 0.05)?
Answer: 75 ± 2 %

Question: And the “Total Arm Entries mean ± SE” value ([2]; 1.0 mg/kg i.p., P < 0.05)?
Answer: 21 ± 1

Question: What about the “% of Alternation Behavior mean ± SE” value ([2]; 1.0 mg/kg i.p.) of the same compound?
Answer: 72 ± 2%

Question: What about the “Alternation Behavior (in words)” value ([2]; SHRSP, 0.1, 0.3 or 1.0 mg/kg, significant at 0.3 mg/kg (p=0.0124)) of the same compound?
Answer: the Alternation Behavior was improved

Question: What about the “number of total Arm Entries (in words)” value ([2]; SHRSP, 0.1, 0.3 or 1.0 mg/kg, significant at 0.3 (p=0.0096) and 1 (p=0.0047) mg/kg) of the same compound?
Answer: showed the decreased number of total Arm Entries

Question: With `O=C(CCCN1CCC(O)(c2ccc(Cl)cc2)CC1)c1ccc(F)cc1` [haloperidol] as the compound, how does the “variation of the correct % of the ORD test (difficult task)” value [1] read?
Answer: decreased the correct % of the ORD test in a dose-dependent manner

Question: Which affinity [3] does the source give for `O=C1[C@@H]2[C@H]3CC[C@H](C3)[C@@H]2C(=O)N1C[C@@H]1CCCC[C@H]1CN1CCN(c2nsc3ccccc23)CC1` [Lurasidone, (3aR, 4S, 7R, 7aS)-2-{1(1R,2R)-2-(4-(1,2-benzisothiazol-3-yl)piperazin-1-yl-methyl]cyclohexylmethyl}hexahydro-4,7-methano-2H-isoindole-1,3-dione] here?
Answer: high affinity

Question: And the affinity [4]?
Answer: high affinity

Question: What about the affinity [5] of the same compound?
Answer: high affinity

Question: What about the affinity [6] of the same compound?
Answer: high affinity

Question: What about the affinity [7] of the same compound?
Answer: minimal to no affinity

Question: What about the affinity [8] of the same compound?
Answer: minimal to no affinity

Question: What about the affinity [9] of the same compound?
Answer: high affinity
